Laboratory results: patent US20240261418A1, “SOS1 DEGRADING AGENT AND PREPARATION METHOD THEREFOR AND APPLICATION THEREOF” (SHANGHAI LEADINGTAC PHARMACEUTICAL CO. LTD., priority 2021, published 2024)

What was measured:
[1] = tested on: KRAS G12C mutant human non-small cell lung cancer cells NCI-H358; assay: 3D cell proliferation inhibition assay, NCI-H358; assay type: cell-based; conditions: NCI-H358, 168 h, 7 days, CTG
Description: (§1) Test Example 4: 3D Cell Proliferation Inhibition Assay
(§2) The inhibitory effect of the compounds on the proliferation of 3D cells was investigated on KRAS G12C mutant human non-small cell lung cancer cells NCI-H358 (ATCC or Stem Cell Bank, Chinese Academy of Sciences), KRAS G12D mutant human metastatic pancreatic adenocarcinoma cells AsPC-1 (ATCC), KRAS G12V mutant human lung adenocarcinoma cells NCI-H441 (ATCC), and KRAS G13D mutant human colorectal adenocarcinoma epithelial cells DLD-1 (ATCC). The specific procedures were as follows:
(§3) 200 nL of compound solution diluted in a gradient was added to corresponding microwells of a 384-well low-adsorption microwell plate (Corning, 3657) using an Echo sonic pipetting system (Labcyte, Echo 550), so that the final concentration of the test compound in the reaction system was in a range of 20000 nM-0.008 nM. Then 40 μL of cells at a certain density were added to the corresponding microplate. In addition to test wells for the test compounds, both a DMSO control well and a medium control well were set, with the DMSO control well containing DMSO and cells and the medium well containing only medium. […] The plate was incubated at room temperature for 30 min and read on a microplate reader EnVision using the chemiluminescence program. […]

[2] = tested on: KRAS G12V mutant human lung adenocarcinoma cells NCI-H441; assay: 3D cell proliferation inhibition assay, NCI-H441; assay type: cell-based; conditions: NCI-H441, 168 h, 7 days, CTG
Description: as §1, §2, §3

SMILES	IC50 [1] [nM]	IC50 [2] [nM]
COc1cc2nc(C)nc(N[C@H](C)c3cc(-c4c(Cl)cccc4CN(C)C)cs3)c2cc1[C@H]1CC[C@H](C(=O)N2CCN(CC3CCC4(CC3)CCN(C(=O)c3ccc(Cl)c(N5CCC(=O)NC5=O)c3)CC4)CC2)CC1 [Example 1, 1-(2-chloro-5-(9-((4-((1R,4R)-4-(4-(((R)-1-(4-(2-chloro-6-((dimethylamino)methyl)phenyl)thien-2-yl)ethyl)amino)-7-methoxy-2-methylquinazolin-6-yl)cyclohexane-1-carbonyl)piperazin-1-yl)methyl)-3-azaspiro[5.5]undecane-3-carbonyl)phenyl)dihydropyrimidine-2,4(1H,3H)-dione]	≤ 15	50 to 100
COc1cc2nc(C)nc(N[C@H](C)c3cc(-c4c(Cl)cccc4CN(C)C)cs3)c2cc1[C@H]1CC[C@H](C(=O)N2CCC(CCOCC3CCN(C(=O)c4ccc(Cl)c(N5CCC(=O)NC5=O)c4)CC3)CC2)CC1 [Example 5, 1-(2-chloro-5-(4-((2-(1-((1R,4R)-4-(4-(((R)-1-(4-(2-chloro-6-((dimethylamino)methyl)phenyl)thien-2-yl)ethyl)amino)-7-methoxy-2-methylquinazolin-6-yl)cyclohexane-1-carbonyl)piperidin-4-yl)ethoxy)methyl)piperidine-1-carbonyl)phenyl)dihydropyrimidine-2,4(1H,3H)-dione]	≤ 15	≤ 15
